In one experiment the test system is B. subtilis DSM10. Description: MIC determination (microdilution, M07-A9). In kind it is cell-based. To be noted: Bacillus subtilis. How it is done:
(§1) MIC values were determined according to the ninth edition of the Approved Standard M07-A9. The test was carried out for six different bacterial strains (E. coli DSM 1116 (Gram-negative), E. coli BW25113 (Gram-negative), B. subtilis DSM 10 (Gram-positive), M. luteus DSM 1790 (Gram-positive), M. phlei DSM 750 (Gram-positive), S. typhimurium TA 100 (Gram-negative). First, 20 µl of glycerol stock of each strain was inoculated in 20 ml LB (Lennox) followed by incubation overnight at 37 °C, 200 r.p.m. The test inoculum was adjusted by the 0.5 McFarland Standard. Within 15 min of preparation, the adjusted inoculum suspension was diluted in MHBII so that each well contained approximately 5 × 10^5 c.f.u. ml^−1 in a final volume of 100 µl. Then, 95 µl of the inoculum was applied per well and 5 µl of the (diluted) albicidins was added. For dilutions, the dry powders were dissolved in dimethylsulfoxide (DMSO) with a concentration of 2.56 mg ml^−1, and the obtained stock solutions were further diluted in DMSO. Next, 5 µl of each antibiotic dilution was applied to the microdilution tray to reach final concentrations of 8 to 0.016 µg ml^−1. One row of each well plate served as a growth control without antibiotic and another row of the microdilution tray served as a sterility control (only MHBII media). The antimicrobial effect of the solvent was tested by adding 5 µl DMSO to several wells. Purity check and cell titre control were performed according to International Standard M07-A9 on Mueller–Hinton II Agar. Both microdilution trays and agar plates were incubated at 37 °C for 20 h.
(Dilution methods test growth across graded concentrations, often in twofold steps.)

The subject of a further experiment is E. coli BW25113. Put plainly: MIC determination (microdilution, M07-A9). The class given is cell-based. The settings on record: E. coli BW25113. How it is done: as §1
A further experiment concerns E. coli DSM116. Put plainly: MIC determination (microdilution, M07-A9). The class given is cell-based. The protocol: as §1
The subject of the next experiment is M. luteus DSM1790. Description: MIC determination (microdilution, M07-A9). The class given is cell-based. How it is done: as §1
A further experiment relates to M. phlei DSM750. Put plainly: MIC determination (microdilution, M07-A9). The class given is cell-based. The settings on record: Mycolicibacterium phlei. How it is done:
as §1

For another experiment, the system named is S. typhimurium TA100. Description: MIC determination (microdilution, M07-A9). In kind it is cell-based. How it is done: as §1
Experiment [1] concerns selected Gram-negative and Gram-positive microorganisms. Put plainly: MIC activity groups over all tested strains. To be noted: MIC panel. In kind it is cell-based. More on the design: key: a: most potent; b: intermediate; least active. The protocol: as §1
The next experiment has as its target T1, WT E. coli gyrase (Escherichia coli, UniProt P0AES4+P0AES6).
T1 construct: alternative cryo-EM approach involving full-length E. coli gyrase; 10-His (cleaved yes); Twin-Strep (cleaved yes); made in house
Put plainly: biochemical. The settings on record: WT gyrase 20 nM; in words. The class given is biochemical. The protocol:
For DNA gyrase supercoiling assays to characterize gyrase mutants, 15 µl reactions were set up containing 250 ng of relaxed DNA, E. coli gyrase supercoiling buffer (35 mM Tris–Cl pH 7.5, 24 mM KCl, 4 mM MgCl2, 2 mM DTT, 1.8 mM spermidine, 1 mM ATP, 6.0% (w/v) glycerol, and 0.1 mg ml^−1 BSA), gyrase subunits and inhibitors. Concentrations of enzyme and inhibitor are stated in the figure legends. Inhibitors were diluted in the following way to reduce the chance of precipitation: stock compound in 100% DMSO was diluted to 5 mM in 100% DMSO. This compound solution was diluted to 1 mM by stepwise addition of 1 µl of 50% DMSO with thorough mixing via pipetting after each addition. All subsequent dilutions up to 100 µM were performed in the same way using H2O. After this point, compounds were stable and could be diluted in the normal way. Reactions were incubated at 37 °C for 30 min before stopping with 15 µl chloroform:isoamyl alcohol (24:1 v/v) and 15 µl of STEB (40% (w/v) sucrose, 100 mM Tris–Cl pH 8, 10 mM EDTA, 0.5 mg ml^−1 bromophenol blue).
Cleavage assays were set up in the same way as supercoiling assays with some modifications. The concentration of enzyme was increased 4-fold relative to the supercoiling assay and reactions were incubated for 1 h before addition of 0.2% SDS and proteinase K (0.2 mg ml^−1) and further incubation at 37 °C for 30 min to trap cleavage complexes. Reactions were stopped in the same way as supercoiling assays.
Results were visualized by agarose gel electrophoresis: 1% agarose Tris-acetate-EDTA (TAE) gels were run without ethidium bromide (supercoiling) or with 10 µg ml^−1 ethidium bromide (cleavage) at 8 V cm^−1.
DNA cleavage gels were analysed using densitometry (ImageJ). Experiments were carried out in triplicate and expressed as mean ± s.d. Curves were fitted using OriginPro 2021 (Origin Lab) according to a modified Hill equation:1 y=cI+(cF−cI)[…]/(k^n+x^n) where y is the percentage of cleaved DNA, cI is the initial cleavage, cF is the final cleavage, k is the CC50 (the concentration of inhibitor that results in cleavage of 50% of DNA), n is a slope factor and x is the inhibitor concentration.

In a further experiment the target is T2, E. coli gyrase (Escherichia coli, UniProt P0AES4+P0AES6).
T2 construct: alternative cryo-EM approach involving full-length E. coli gyrase; 10-His (cleaved yes); Twin-Strep (cleaved yes); made in house
Description: Gyrase cleavage of linear DNA fragments (Mu217 and others). In kind it is biochemical. To be noted: in words. How it is done: Mu217 DNA (25 nM) was incubated with 0.4 µM gyrase and indicated concentrations (1 or 10 µM) of diazirine-labelled albicidin (photo-Albi, φAlbi) in a volume of 20 µl (~70 ng DNA) at 37 °C for 30 min in gyrase cleavage buffer (see section 'Topoisomerase assays'). For CFX competition experiments, 30 µM CFX was added first, followed by the albicidin. Reactions were either irradiated with ultraviolet 365 nm (benchtop transilluminator) with cooling (ice) for 30 min or left on ice for 30 min (‘dark’). Then, 0.2% SDS and 0.2 mg ml^−1 proteinase K were added to both samples, which were incubated for another 30 min. Reactions were mixed with loading dye (STEB) and chloroform:isoamyl alcohol (24:1 v/v) before vortexing and centrifugation. The aqueous phase was loaded on 4–20% TBE (Tris–borate–EDTA) polyacrylamide gel (Thermo) and ran for 1 h at 150 V. DNA was visualized with SYBR Gold (Thermo) staining.
Extended Data Fig. 1 Length dependency of albicidin-mediated DNA cleavage. Position of cleaved DNA indicated by arrows and red dots. ATP and ADPNP were added as indicated, (----) stands for no nucleotide added. 20 nM gyrase, 1 µM albicidin and 25 nM DNA was used in each reaction.
Extended Data Fig. 5 Photocrosslinking of diazirine-labelled albicidin (photo-Albi) to the DNA. a. Structures of N-terminal photo-Albi and control compound. b. DNA cleavage assay with Mu217 fragment and indicated concentrations of compounds. The labelled DNA band appearing upon irradiation of a photo-compound when bound to the complex is marked by a yellow star. c. Ciprofloxacin competition experiment. Pre-incubation with excess CFX prevents albicidin binding and crosslinking. Details of the experiment are available in Methods section.

Setting [2] is: first value in cell (biological replicate).
Setting [3] is: second value in cell (biological replicate).
Setting [4] is: Escherichia coli, first value in cell (biological replicate), read-out: MIC.
Where [5] appears, read: E. coli DSM116, second value in cell (biological replicate).
[6] abbreviates: Escherichia coli, E. coli DSM116, first value in cell (biological replicate), read-out: MIC.
[7] abbreviates: Micrococcus luteus, first value in cell (biological replicate), read-out: MIC.
Setting [8] is: Salmonella enterica, first value in cell (biological replicate), read-out: MIC.

Here are results for 4 molecules from paper PMC9886550, “Molecular mechanism of topoisomerase poisoning by the peptide antibiotic albicidin” (Nature Catalysis, 2023).

Values after ≈ are worked out from the molar mass of the structure shown. Read-outs that look alike come from different tables or passages of the source. Marks after values point to notes of the source that are not given here.

T2 sequence (P0AES4 whole entry, one chain of several): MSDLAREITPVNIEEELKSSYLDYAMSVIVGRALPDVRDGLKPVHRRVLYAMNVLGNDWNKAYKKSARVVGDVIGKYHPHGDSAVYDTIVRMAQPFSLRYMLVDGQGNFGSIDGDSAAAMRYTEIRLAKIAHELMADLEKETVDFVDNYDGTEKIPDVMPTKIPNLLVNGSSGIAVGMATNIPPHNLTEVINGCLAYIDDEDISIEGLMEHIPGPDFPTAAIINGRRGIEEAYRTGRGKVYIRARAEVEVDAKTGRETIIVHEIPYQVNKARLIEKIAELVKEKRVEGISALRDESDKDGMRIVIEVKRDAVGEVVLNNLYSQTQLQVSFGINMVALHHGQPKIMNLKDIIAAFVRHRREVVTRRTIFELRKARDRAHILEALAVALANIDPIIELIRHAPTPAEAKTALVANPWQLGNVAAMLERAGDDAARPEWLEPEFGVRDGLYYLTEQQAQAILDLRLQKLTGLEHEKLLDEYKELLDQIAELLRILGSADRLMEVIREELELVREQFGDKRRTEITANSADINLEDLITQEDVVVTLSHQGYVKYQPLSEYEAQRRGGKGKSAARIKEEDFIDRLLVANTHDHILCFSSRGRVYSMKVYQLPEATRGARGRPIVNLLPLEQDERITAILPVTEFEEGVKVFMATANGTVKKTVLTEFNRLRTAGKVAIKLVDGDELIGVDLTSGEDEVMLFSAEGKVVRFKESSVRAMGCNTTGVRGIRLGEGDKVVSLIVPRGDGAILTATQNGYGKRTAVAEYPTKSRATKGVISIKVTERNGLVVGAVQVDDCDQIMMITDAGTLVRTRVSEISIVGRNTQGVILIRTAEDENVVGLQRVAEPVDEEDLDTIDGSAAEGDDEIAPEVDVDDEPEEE
T1 sequence (P0AES4 whole entry, one chain of several): as above

One may read the MIC as the least concentration at which growth counts as inhibited. Regarding `COc1c(NC(=O)c2ccc(NC(=O)[C@H](Cc3c[nH]nn3)NC(=O)c3ccc(NC(=O)c4ccc(C#N)cc4)cc3)cn2)ccc(F)c1F` [AE-5], the MIC in the experiment on B. subtilis DSM10 (setting [2]) was above 8 µg/mL; against B. subtilis DSM10 (setting [3]), above 8 µg/mL; with E. coli BW25113 (setting [4]), above 8 µg/mL; in the experiment with E. coli DSM116 (setting [5]), >8.0 >8.0 µg ml^−1; with E. coli DSM116 (setting [6]) it was above 8 µg/mL; in the experiment with M. luteus DSM1790 (setting [7]) it was above 8 µg/mL. Besides, the MIC against M. luteus DSM1790 (setting [3]) was >8.0 >8.0 µg ml^−1; against M. phlei DSM750 (setting [2]), above 8 µg/mL; against M. phlei DSM750 (setting [3]) it was above 8 µg/mL; in the experiment with S. typhimurium TA100 (setting [8]), above 8 µg/mL. Moreover, in [1], the “activity group (superscript letter)” value is reported as “AE-5^c”.

`COc1c(NC(=O)c2ccc(NC(=O)c3ccc(NC(=O)[C@H](Cc4c[nH]nn4)NC(=O)c4ccc(C#Cc5ccc(C#N)cc5)cc4)cn3)c(OC)c2O)ccc(C(=O)O)c1O` [Alkyne–Albi]: the MIC against B. subtilis DSM10 (setting [2]) is 0.063 µg/mL (≈ 0.0754 µM); in the experiment on B. subtilis DSM10 (setting [3]), 0.125 µg/mL (≈ 0.15 µM); in the experiment on E. coli BW25113 (setting [4]), below 0.016 µg/mL; against E. coli DSM116 (setting [5]), <0.016 <0.016 µg ml^−1; with E. coli DSM116 (setting [6]) it was below 0.016 µg/mL; in the experiment on M. luteus DSM1790 (setting [7]) it was below 0.016 µg/mL. Besides, the MIC was <0.016 <0.016 µg ml^−1 against M. luteus DSM1790 (setting [3]), 0.25 µg/mL (≈ 0.299 µM) in the experiment with M. phlei DSM750 (setting [2]), 0.5 µg/mL (≈ 0.598 µM) with M. phlei DSM750 (setting [3]) and below 0.016 µg/mL in the experiment with S. typhimurium TA100 (setting [8]). The “activity group (superscript letter)” value in experiment [1] is “Alkyne–Albi^a”. Moreover, the “activity in a DNA cleavage assay relative to albicidin” value on WT E. coli gyrase is on record as “as active as albicidin”.

For the molecule `COc1c(NC(=O)c2ccc(NC(=O)c3ccc(NC(=O)[C@H](Cc4c[nH]nn4)NC(=O)c4ccc(NC(=O)/C(C)=C/c5ccc(O)cc5)cc4)cn3)c(OC)c2O)ccc(C(=O)O)c1O` [Azahis–Albi], the MIC against B. subtilis DSM10 (setting [2]) was 0.031 µg/mL (≈ 0.035 µM); against B. subtilis DSM10 (setting [3]) it was 0.063 µg/mL (≈ 0.0711 µM); against E. coli BW25113 (setting [3]), <0.016 <0.016 µg ml^−1; in the experiment with E. coli BW25113 (setting [4]), below 0.016 µg/mL; with E. coli DSM116 (Escherichia coli, DSM116, E. coli DSM116, first value in cell (biological replicate), read-out: MIC), below 0.016 µg/mL; with E. coli DSM116 (Escherichia coli, DSM116, E. coli DSM116, second value in cell (biological replicate), read-out: MIC), below 0.016 µg/mL. In addition, the MIC with M. luteus DSM1790 (setting [7]) is 0.031 µg/mL (≈ 0.035 µM); in the experiment with M. phlei DSM750 (setting [2]), 0.125 µg/mL (≈ 0.141 µM); against M. phlei DSM750 (setting [3]), 0.5 µg/mL (≈ 0.564 µM); with S. typhimurium TA100 (setting [8]) it was below 0.016 µg/mL; with S. typhimurium TA100 (setting [3]) it was <0.016 <0.016 µg ml^−1.

Regarding `C#CC[C@H](NC(=O)c1ccc(NC(=O)c2ccc(C3(C(F)(F)F)N=N3)cc2)cc1)C(=O)Nc1ccc(C(=O)Nc2ccc(C(=O)Nc3ccc(C(=O)O)c(O)c3OC)c(O)c2OC)nc1` [photo-Albi], the activity against gyrase result at E. coli gyrase is given as “active against gyrase”.
